{"source": "patent US10695324B2", "about": "“Treatment for wolfram syndrome and other endoplasmic reticulum stress disorders” (Washington University, priority 2014, dated 2020)", "key": {"INS-1 823/13 cells": {"test_system": "INS-1 823/13 cells", "experiment": "Small-scale screen for prevention of thapsigargin mediated cell death, caspase 3/7-Glo luminescence", "assay_type": "cell-based, rat", "settings": "pretreated 24 hours, then 2 nM thapsigargin overnight", "description": "INS-1 823/13 cells were pretreated with DMSO or drugs for 24 hours the incubated in media containing 2 nM of thapsigargin (TG) overnight. Apoptosis was detected by caspase 3/7-Glo luminescence. […] These eight compounds were PARP Inhibitor, dantrolene sodium, NS398, rapamycin, pioglitazone, calpain inhibitor III, docosahexaenoic acid (DHA), and GLP-1 (FIG. 8A)."}, "NSC34 cells": {"test_system": "NSC34 cells", "experiment": "Cytoplasmic calcium levels by Fura-2 calcium indicator", "assay_type": "cell-based", "settings": "10 μM for 24 hours", "description": "(§1) First, the question of whether dantrolene could decrease cytoplasmic calcium levels was tested. […] and NSC34 cells were untreated or treated with 10 μM dantrolene for 24 hours. Cytoplasmic calcium levels were measured by Fura-2 calcium indicator over a period of 5 minutes. Thapsigargin (1 μM) was added at time 0. […] Next, it was necessary to determine if dantrolene could restore cytosolic calcium levels in WFS1-deficient cells."}, "INS-1 832/13 cells": {"test_system": "INS-1 832/13 cells", "experiment": "Cytoplasmic calcium levels by Fura-2 calcium indicator", "assay_type": "cell-based, rat", "settings": "10 μM for 24 hours", "description": "as §1"}, "[1]": {"settings": "cited from earlier work"}, "[2]": {"test_system": "neural progenitor cells derived from iPS cells of a Wolfram syndrome subject", "experiment": "Thapsigargin-induced cell death in patient neural progenitor cells, cleaved caspase-3 immunoblotting", "settings": "pretreated 10 μM for 48 hours, then 0.125 μM thapsigargin for 20 hours", "from_the_text": "To generate iPS cells, fibroblasts were obtained from non-affected controls and subjects with Wolfram syndrome. […] To generate neural progenitor cells, iPSCs were counted and plated ˜50,000 per well in a 96-well plate to form uniform embryoid bodies. After 5 days, embryoid bodies were suspended in neural induction media and replated as adherent cultures. Fresh media was applied every day for 7 days. Neural rosettes formed in these cultures were selected and plated. Plated rosettes were fed with neural induction media every day for 4-7 days to obtain neural progenitor cells.\nWolfram patient neural progenitor cells were pretreated with or without 10 μM dantrolene for 48 hours."}, "[3]": {"test_system": "WFS1-knockdown NSC34 cells", "experiment": "Protection of WFS1-knockdown cells, immunoblotting of cleaved caspase-3 and cleaved spectrin", "assay_type": "cell-based", "settings": "10 μM for 24 hours", "description": "NSC34 cells were transfected with scrambled siRNA or siRNA directed against WFS1, then untreated or treated with 10 μM dantrolene for 24 hours."}, "[4]": {"test_system": "NSC34 cells transfected with WFS2 siRNA", "experiment": "Cell death mediated by WFS2 knockdown, cleaved caspase-3 immunoblotting", "assay_type": "cell-based", "settings": "10 μM for 24 hours, 24 hours post transfection", "description": "(§2) In to determine if danotrolene affects ER calcium homeostasis, cells were treated with ryanodine or dantrolene. INS-1 832/13 cells were transfected with scrambled siRNA or WRFS1 siRNA. After 24 hours post-transfection, cells were untreated or treated with 2 μM ryanodine for 24 hours. Cleaved caspase-3, WFS1, and GAPDH levels were monitored by immunoblotting (FIG. 10A, left panel) and quantified ([…], right panel). INS-1 832/13 cells (FIG. 10B) and NSC34 cells (FIG. 10C) were transfected with scrambled siRNA or WRFS2 siRNA. After 24 hours post transfection, cells were untreated or treated with 10 μM dantrolene for 24 hours. Cleaved caspase-3, WFS2, and GAPDH levels were monitored by immunoblotting."}, "[5]": {"test_system": "INS-1 832/13 cells transfected with WFS2 siRNA", "experiment": "Cell death mediated by WFS2 knockdown, cleaved caspase-3 immunoblotting", "assay_type": "cell-based, rat", "settings": "10 μM for 24 hours, 24 hours post transfection", "description": "as §2"}, "[6]": {"test_system": "ER-localized ryanodine receptors", "settings": "previous studies; cited from earlier work"}, "[7]": {"test_system": "WFS1 silenced INS-1 832/13 cells", "experiment": "Protection of WFS1 silenced cells, immunoblotting of cleaved caspase-3 and cleaved spectrin", "assay_type": "cell-based, rat", "settings": "10 μM for 48 hours", "description": "In order to determine whether dantrolene conferred protection in WFS1 deficient cells and WFS1 silenced INS-1 832/13 cells were treated with dantrolene. INS-1 832/13 cells were transfected with scrambled siRNA or siRNA directed against WFS1. Cells were untreated or treated with 10 μM dantrolene for 48 hours, then incubated in media containing 0.5 μM thapsigargin for 6 hours. Expression levels of cleaved caspase-3 under untreated and thapsigargin treated conditions (FIG. 9A, left panel) were quantified and shown in FIG. 9A, center and right panels (n=3, *P<0.05). Protein levels of cleaved spectrin, WFS1, and GAPDH were analyzed by immunoblotting (FIG. 9B, left panel) and quantified (FIG. 9B, right panel) (n=3, *P<0.05). […]"}, "INS1E cells": {"test_system": "INS1E cells", "experiment": "ER stress- and cytokine-induced β cell death, caspase 3/7 activity assay", "settings": "100 nM", "from_the_text": "A Caspase 3/7 assay (Promega, Madison, Wis.) was utilized to measure caspase-3 and -7 activities in various cell lines. The assay provides a proluminescent caspase-3/7 substrate, which contains the tetrapeptide sequence DEVD. This caspase-3/7 substrate can be added directly to cell lysates. The substrate is cleaved to release a aminoluciferin, which is a substrate for luciferase used in the production of light. The signal is proportional to caspase-3/7 activity."}, "[8]": {"test_system": "INS-1 832/13 cells transfected with WFS2 siRNA", "experiment": "WFS2-knockdown mediated cell death, cleaved caspase-3 immunoblotting", "assay_type": "cell-based, rat", "settings": "β cell line; 5 μM for 24 hours, 24 hours post-transfection", "description": "(§3) Neuro2a and MIN6 cells were transfected with siRNA against WFS2 or a control scrambled siRNA (Cont.). After 36 hours post-transfection, cells were untreated or treated with 100 μM calpeptin for 12 hours. Cleaved caspase 3 and actin levels were assessed by immunoblotting (FIG. 5A, left panel). Quantified levels of cleaved caspase-3 are shown in FIG. 5A, right panel (n=3, *P<0.05). Additionally, early stage apoptosis was monitored by Annexin V staining followed by flow cytometry, FIG. 5C. INS-1 832/13 cells were transfected with scrambled siRNA and WFS2 siRNA. After 24 hours post-transfection, cells were untreated or treated with 5 μM calpeptin for 24 hours. Cleaved caspase-3, WFS2, and actin levels were monitored by immunoblotting (FIG. 5D, left panel) and quantified (FIG. 5D, right panel) (n=3, *P<0.05)."}, "[9]": {"test_system": "Neuro2a cells transfected with siRNA against WFS2", "experiment": "WFS2-knockdown mediated cell death, cleaved caspase 3 immunoblotting and Annexin V staining", "assay_type": "cell-based, mouse", "settings": "neuronal cell line; 100 μM for 12 hours, 36 hours post-transfection", "description": "Flow cytometry analyses (FACS) were performed with LSRII Flow Cytometer (BD Biosciences, San Jose, Calif.) at the FACS core facility of Washington University School of Medicine Neural progenitor cells or NSC34 cells were plated in 24-well plates. After staining with Annexin V, cells were washed and resuspended in PBS. Cells were run using standard protocols, specifically Annexin V positive cell (i.e., apoptotic cells). The results were analyzed by FlowJo ver.7.6.3 (Ashland, Oreg.).\nas §3"}, "[10]": {"test_system": "MIN6 cells transfected with siRNA against WFS2", "experiment": "WFS2-knockdown mediated cell death, cleaved caspase 3 immunoblotting", "assay_type": "cell-based, rodent", "settings": "β cell line; 100 μM for 12 hours, 36 hours post-transfection", "description": "as §3"}, "[11]": {"test_system": "ER stress-mediated cell death", "settings": "have been shown (references); cited from earlier work"}, "[12]": {"test_system": "CAPNS1 protein in HEK293T cells ectopically expressing WFS2", "experiment": "CAPNS1 protein level after proteasome inhibition", "assay_type": "cell-based", "settings": "2 μM", "description": "To find out whether WFS2 regulates CAPNS1 stability through the ubiquitin-proteasome pathway, HEK293T cells ectopically expressing WFS2 were treated with a proteasome inhibitor, MG132 (2 μM), and then the CAPNS1 protein level was measured."}, "[13]": {"test_system": "INS-1 832/13 cells expressing D1ER", "experiment": "ER calcium monitoring with D1ER (FRET/CFP ratio, FACS)", "assay_type": "cell-based, rat", "settings": "various concentrations, dose-dependent manner", "excerpt": "A β cell line was developed to monitor ER calcium levels under various conditions. The ER-localized calcium sensor D1ER was modified to contain two fluorescent proteins, CFP and YFP, which were inserted onto the N- and C-terminus, respectively. INS-1 832/13 cells were transfected with the modified D1ER calcium sensor. When Ca^2+ binds to the calmodulin, an intramolecular rearrangement occurs and brings CFP and YFP into close proximity resulting in a fluorescence resonance energy transfer (FRET) from CFP to YFP. The FRET signal allows ratiometric measurements of free ER Ca^2+ and changes in Ca^2+ using FRET/CFP ratio.\nINS-1 832/13 cells that stably express D1ER were treated with digitonin and ethylene glycol tetraacetic acid (EGTA) which causes the minimum value of FRET/CFP ratio, FIG. 10F. Additionally, cells treated with digitonin and CaCl2 led to the maximum value of FRET/CFP ratio, FIG. 10F.\nFRET/CFP ratio was decreased in INS-1 832/13 cells treated with thapsigargin in a dose-dependent manner (FIG. 10G). Additionally, the rates of ER calcium-depleted cells increased in cells treated with thapsigargin in a dose-dependent manner (FIG. 10G)."}, "[14]": {"settings": "thapsigargin 1 μM added at time 0, Fura-2 over 5 minutes"}}, "note": "Ends that are not written are not given here. Peptide text beside a SMILES is read from it. * marks the point of attachment. Cbz = O=C(OCc1ccccc1)*"}
{"molecule": "CS(=O)(=O)Nc1ccc([N+](=O)[O-])cc1OC1CCCCC1", "note": "[NS398]", "values": [{"measurement": "suppression of thapsigargin mediated cell death (apoptosis by caspase 3/7-Glo luminescence)", "setting": "INS-1 823/13 cells; 10 μM (Table 3)", "result": "significantly suppress thapsigargin mediated cell death"}]}
{"molecule": "CC(C)[C@H](NC(=O)OCc1ccccc1)C(=O)N[C@H](C=O)Cc1ccccc1", "note": "[calpain inhibitor III] (Cbz-Val-Phe-aldehyde)", "values": [{"measurement": "suppression of thapsigargin mediated cell death (apoptosis by caspase 3/7-Glo luminescence)", "setting": "INS-1 823/13 cells; 1 μM (Table 3)", "result": "significantly suppress thapsigargin mediated cell death"}]}
{"molecule": "O=C1CN(/N=C/c2ccc(-c3ccc([N+](=O)[O-])cc3)o2)C(O)=N1", "note": "[dantrolene, 1-[[5-(4-nitrophenyl)-2-furyl]methylideneamino]imidazolidine-2,4-dione]", "values": [{"measurement": "cytosolic calcium levels", "setting": "NSC34 cells; [14]", "result": "decreased cytosolic calcium levels"}, {"measurement": "cytosolic calcium levels in WFS1-knockdown cells", "setting": "NSC34 cells; WFS1-knockdown NSC34 cells", "result": "restored cytosolic calcium levels"}, {"measurement": "cytosolic calcium levels", "setting": "INS-1 832/13 cells; [14]", "result": "decreased cytosolic calcium levels"}, {"measurement": "cytosolic calcium levels in WFS1-knockdown cells", "setting": "INS-1 832/13 cells; WFS1-knockdown INS-1 832/13 cells", "result": "restored cytosolic calcium levels"}, {"measurement": "solubility in water", "setting": "[1]", "result": "poorly soluble in water"}, {"measurement": "thapsigargin-induced cell death (cleaved caspase-3)", "setting": "[2]", "result": "could prevent cell death"}, {"measurement": "calpain activation (cleaved spectrin)", "setting": "[3]", "result": "prevented calpain activation"}, {"measurement": "cell death (cleaved caspase-3)", "setting": "[3]", "result": "prevented calpain activation and cell death"}, {"measurement": "cell death mediated by WFS2 knockdown", "setting": "[4]", "result": "did not block cell death mediated by WFS2 knockdown"}, {"measurement": "cell death mediated by WFS2 knockdown", "setting": "[5]", "result": "did not block cell death mediated by WFS2 knockdown"}, {"measurement": "leakage of calcium from the ER to the cytosol", "setting": "[6]", "result": "suppresses leakage of calcium from the ER to the cytosol"}, {"measurement": "calpain activity (cleaved spectrin)", "setting": "[7]; then 0.5 μM thapsigargin for 6 hours", "result": "suppression of apoptosis and calpain activity"}, {"measurement": "apoptosis (cleaved caspase-3)", "setting": "[7]; then 0.5 μM thapsigargin for 6 hours or untreated", "result": "suppression of apoptosis"}, {"measurement": "cytokine induced β cell death", "setting": "INS1E cells; inflammatory cytokine 50 ng/mL", "result": "prevented"}, {"measurement": "thapsigargin-induced β cell death", "setting": "INS1E cells; thapsigargin 10 nM for 24 hours", "result": "prevented"}, {"measurement": "suppression of thapsigargin mediated cell death (apoptosis by caspase 3/7-Glo luminescence)", "setting": "INS-1 823/13 cells; 10 μM (Table 3)", "result": "significantly suppress thapsigargin mediated cell death"}]}
{"molecule": "CCCC[C@@H](C=O)NC(=O)[C@H](CC(C)C)NC(=O)OCc1ccccc1", "note": "[calpeptin]", "values": [{"measurement": "WFS2-knockdown mediated cell death", "setting": "[8]", "result": "prevented WFS2-knockdown mediated cell death"}, {"measurement": "WFS2-knockdown mediated cell death", "setting": "[9]", "result": "prevented WFS2-knockdown mediated cell death"}, {"measurement": "WFS2-knockdown mediated cell death", "setting": "[10]", "result": "prevented WFS2-knockdown mediated cell death"}]}
{"molecule": "GLP-1: Glucagon-like peptide-1; FDA approved drug (HAEGTFTSDVSSYLEGQAAKEFIAWLVKGR; ends and bridges not checked; UniProt P01275 98-127, looked up)", "values": [{"measurement": "protection against ER stress-mediated cell death", "setting": "[11]", "result": "confer protection against ER stress-mediated cell death"}, {"measurement": "suppression of thapsigargin mediated cell death (apoptosis by caspase 3/7-Glo luminescence)", "setting": "INS-1 823/13 cells; 50 nM (Table 3)", "result": "significantly suppress thapsigargin mediated cell death"}]}
{"molecule": "CC(C)C[C@@H](C=O)NC(=O)[C@H](CC(C)C)NC(=O)[C@H](CC(C)C)NC(=O)OCc1ccccc1", "note": "[MG132] (Cbz-Leu-Leu-Leu-aldehyde)", "values": [{"measurement": "CAPNS1 protein level", "setting": "[12]", "result": "stabilized CAPNS1 protein"}]}
{"molecule": "C/C=C(/C)C(=O)O[C@H]1C(C)=C2[C@H]([C@@H]1OC(=O)CCCCCCC)[C@@](C)(OC(C)=O)C[C@H](OC(=O)CCC)[C@@]1(O)[C@H]2OC(=O)[C@@]1(C)O", "note": "[thapsigargin]", "values": [{"measurement": "FRET/CFP ratio (ER calcium)", "setting": "[13]", "result": "decreased"}, {"measurement": "rates of ER calcium-depleted cells", "setting": "[13]", "result": "increased"}]}
